Laboratory results as given in paper PMC7016953 (Cells, 2020).

Experiments:
TRPC3 = target: T1, TRPC3 (Homo sapiens, UniProt Q13507); assay: Fluo-4 Ca2+ influx assay in HEK TRPC3-YFP cell suspensions; format: cell-based; settings: for IC50: inhibitor 5 min, then 50 µM artemisinin, fluo-4, read-out: IC50 for inhibition of artemisinin-induced increases in [Ca2+]i; for effect of preincubation on responses to artemisinin (1–200 µM): 10 µM for 5 min; for TRPC3 activation in concentration response analysis: fluo-4, up to 200 µM, compared with solvent (DMSO)
T1 construct: expressed in transfected cells
T1 sequence (Q13507 1-848 isoform Q13507-3): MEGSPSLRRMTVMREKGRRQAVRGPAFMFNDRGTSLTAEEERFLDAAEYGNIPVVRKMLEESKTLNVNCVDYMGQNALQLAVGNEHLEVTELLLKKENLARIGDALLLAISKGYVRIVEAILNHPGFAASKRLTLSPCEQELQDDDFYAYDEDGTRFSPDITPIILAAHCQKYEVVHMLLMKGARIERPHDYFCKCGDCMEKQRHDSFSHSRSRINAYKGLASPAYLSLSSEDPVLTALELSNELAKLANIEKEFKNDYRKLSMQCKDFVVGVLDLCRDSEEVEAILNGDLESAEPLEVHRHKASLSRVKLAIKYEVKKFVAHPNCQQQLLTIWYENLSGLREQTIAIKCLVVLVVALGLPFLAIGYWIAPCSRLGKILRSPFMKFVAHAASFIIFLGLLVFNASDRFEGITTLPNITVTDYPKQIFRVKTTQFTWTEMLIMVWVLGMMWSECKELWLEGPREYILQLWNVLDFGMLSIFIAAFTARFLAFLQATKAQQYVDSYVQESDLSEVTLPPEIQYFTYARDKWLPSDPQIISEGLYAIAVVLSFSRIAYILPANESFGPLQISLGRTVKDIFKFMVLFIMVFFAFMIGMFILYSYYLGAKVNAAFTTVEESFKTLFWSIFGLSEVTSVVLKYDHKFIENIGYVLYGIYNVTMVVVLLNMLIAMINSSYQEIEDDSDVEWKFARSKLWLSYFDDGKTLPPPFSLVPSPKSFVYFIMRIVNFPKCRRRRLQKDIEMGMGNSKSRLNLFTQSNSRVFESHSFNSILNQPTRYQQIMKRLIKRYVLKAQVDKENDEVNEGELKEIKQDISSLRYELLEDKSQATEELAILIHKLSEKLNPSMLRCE

[1] = tested on: PC12 cells (native TRPC3 channel complexes); assay: Whole-cell patch-clamp recordings in PC12 cells; format: cell-based, rat; settings: 20 µM CBN 2910-0498, 10 µM SAR7334, or 10 µM GSK417654A
Protocol: The recordings of TRPC3, TRPC6, or TRPC7 membrane currents in HEK293 or PC12 cells were realized by using a Multiclamp 700B amplifier with a Digidata 1440A digitizer controlled by the PClamp 10 software (all Molecular Devices, Sunnyvale, CA, U.S.A.). Recordings were obtained at room temperature either in the whole-cell or in an outside-out configuration as indicated. Cells were seeded as described above, but at lower density, mounted in a chamber (Warner Instruments, Hamden, CT; U.S.A.), placed onto the stage of an inverted microscope, and perfused with required solution. The standard extracellular solution contained 140 mM NaCl, 5 mM CsCl, 2 mM MgCl2, 1 mM CaCl2, 10 mM HEPES, and 0.035% BSA adjusted to pH 7.4 with NaOH. The composition of standard intracellular solution was 140 mM CsCl, 1 mM MgCl2, 5 mM EGTA, and 10 mM HEPES adjusted to pH 7.25 with CsOH; the osmolarity was 295 mOsm l^−1. In outside-out measurements, the pipette solution contained 5 mM EGTA and 1.1 mM CaCl2 to achieve a calculated free Ca^2+ concentration of 100 nM.
Patch pipettes were pulled from borosilicate glass capillaries BG150F-8P (Science Products, Hofheim, Germany) with a PIP6 pipette puller (HEKA Elektronik, Lambrecht, Germany). […] In all whole-cell measurements, the series resistance was lower than 13 MΩ, and compensated by 70%. If the access was unstable during the experiment (increase in series resistance by more than 15% at the end of the experiment), the cell was omitted from the analysis. To record current/voltage (I/V) curves, voltage ramps (400 mV s^−1) ranging from –100 to +100 mV were applied. Currents were filtered at 3 kHz with a four-pole Bessel filter and sampled at 10 kHz. […]
Figure 9 Artemisinin-induced ionic currents in HEK293 cells and in PC12 cells are sensitive to established TRPC3 inhibitors. […] Concentration–response curves were normalized to responses measured without an inhibitor (controls), and IC50 values were obtained by fitting a four-parameter Hill equation to the data. […]

[2] = tested on: PC12 cells (native TRPC3 channel complexes); assay: [Ca2+]i analysis in fura-2-loaded PC12 cells; format: cell-based, rat; settings: artemisinin 50 or 100 µM; 6–12 experiments for each compound
Protocol: Human embryonic kidney 293 (HEK293) cells were stably transfected with expression plasmids that encode hTRPC3-YFP, hTRPC6-YFP, hTRPC7-YFP, mTRPC4ß-YFP, rTRPV1-CFP, rTRPV2-YFP, rTRPV3-YFP, mTRPV4-YFP, or hTRPM2 as previously described. Cell lines were cultured in Earle’s minimum essential medium (MEM; Sigma, Munich, Germany), supplemented with 10% fetal calf serum (Gibco Thermo Fisher Scientific, Darmstadt, Germany), 2 mM L-glutamine, and required concentrations of geneticin in a range of 0.4–1 mg/mL. A HEK293mTRPC5-YFP cell line was maintained and induced as described before. The HEK293mTRPM3α2 cells (expressing the Ca^2+-permeable main variant of mouse TRPM3) were kindly provided by Johannes Oberwinkler (Marburg, Germany), the HEK293hTRPA1 cells that constitutively overexpress the human TRPA1 were from Dr. Natalie Tigue and Dr. Steve Moore (GlaxoSmithKline, Harlow, UK). With the exception of mTRPC5-YFP, all cell lines constitutively overexpress the respective TRP channel under the control of a cytomegalovirus (CMV) promoter. A HEK cell line stably expressing the human protein kinase C (PKC) ε C-terminally tagged with YFP [13] was generated and maintained in the same medium as HEKTRPC3-YFP cells. PC12 cells were cultured in RPMI-1640 (Sigma, Munich, Germany) with 10% fetal calf serum, 2 mM L-glutamine, 100 U/mL penicillin, and 0.1 mg/mL streptomycin. For electrophysiological and single cell [Ca^2+]i imaging experiments, PC12 cells were plated onto 25 mm poly-L-lysine-coated glass coverslips and measured 24–48 h after seeding. All cells were maintained at 37 °C in a 5% CO2-aerated, humidified atmosphere.
The microfluorometric single-cell [Ca^2+]i analysis was performed on an inverted epifluorescence microscope (Carl Zeiss, Jena, Germany) and calibrated as described. Cells were grown on 25 mm coverslips and loaded with 4 µM fura-2/AM (AAT Bioquest, Sunnyvale, CA, U.S.A.) in HBS containing 0.2% BSA for 30 min at 37 °C. After gently rinsing the coverslips with HBS, coverslips were mounted in a bath chamber and superfused with HBS containing 0.035% BSA.
Figure 7 Expression of TRPC3 and functional responses to TRPC activators in PC12 rat pheochromocytoma cells. (A) Immunofluorescence analysis of TRPC3 (green channel) and tyrosine hydroxylase (TH; red channel) expression in PC12 cells. Nuclei were counterstained with DAPI (blue channel). Bars: 20 µm scale. Time course of the [Ca^2+]i (B) and averaged basal and peak [Ca^2+]i values (C) were recorded by microfluorometric analysis in fura-2-loaded PC12 cells grown on glass coverslips. […] Data represent averages (B) or means and S.D. (C) of 6–12 imaging experiments for each compound. Significant increases compared to the respective basal values are indicated (#: p < 0.05; Student´s t-test for paired data).

hTRPC7-YFP = tested on: T2, hTRPC7-YFP; assay: Fluo-4 Ca2+ influx assay in HEK293 cells stably expressing TRPC7; format: cell-based, human; settings: fluo-4 concentration response analysis
T2 construct: expressed in transfected cells

[3] = tested on: T3, heteromeric TRPC3:TRPC6 channel complexes; assay: Fluo-4 Ca2+ influx assay in HEK293 cells co-expressing TRPC3 and TRPC6; format: cell-based; settings: fluo-4 concentration response analysis
T3 construct: expressed in transfected cells; host or cells: HEK293, stably co-transfected
Protocol: All fluorometric Ca^2+ assays were done in (4-(2-hydroxyethyl)-1-piperazineethanesulfonic acid) (HEPES)-buffered saline (HBS), containing 132 mM NaCl, 6 mM KCl, 1 mM MgCl2, 1 mM CaCl2, 5.5 mM D-glucose, 10 mM HEPES, and 0.035% bovine serum albumin (BSA) adjusted to pH 7.4 with NaOH. For measurements in Ca^2+-free bath solutions, a modified HBS without CaCl2 was supplemented with 200 µM ethylene glycol-bis(β-aminoethyl ether)-N,N,N′,N′-tetraacetic acid (EGTA).
The primary compound screen and the generation of concentration response curves in HEK293 cells or in PC12 cells were performed by using a custom-made fluorescence plate imager built into a robotic liquid handling station equipped with a 96-tip multichannel head (Freedom Evo 150, Tecan, Männedorf, Switzerland) as described previously. To this end, trypsinized cell suspensions were loaded with 4 µM fluo-4/AM (Invitrogen, Thermo Fisher Scientific, Waltham, MA, U.S.A.) in cell culture medium for 30 min at 37 °C. After brief centrifugation, cells were resuspended in HBS and dispensed into black pigmented, clear-bottom 384-well plates (Greiner µClear, Frickenhausen, Germany). Plates were mounted on the imager, and fluorescence signals were recorded with a cooled Zyla 5.5 camera (Andor, Belfast, UK) through a 515 nm long pass filter. The image acquisition was controlled by the µManager software (http://micro-manager.org), and excitation with a LED array (470 nm) was synchronized by the camera trigger output. After baseline recording for about 60 s, the compound libraries or serial dilutions of activators or inhibitors were added to the cells by the liquid handling device. When inhibitory potencies were evaluated, a second pipetting step with the respective reference agonist was performed. Fluorescence intensities were calculated from image stacks for each well with ImageJ (National Institutes of Health, Bethesda, MD, U.S.A.), corrected for background signals, and normalized to the initial intensities (F/F0). […]

COc1ccc(Nc2nc(C(=O)N3CCc4ccccc4C3)cs2)cc1 [GSK417654A]
IC50 (TRPC3): 0.5 µM
effect on ionic currents stimulated by 50 µM artemisinin in PC12 cells [1]: rapidly reversed

O=C(c1cc2c(s1)CCCCC2)N1CCC(n2c(=O)[nH]c3ccccc32)CC1 [GSK-1702934A]
[Ca2+]i in fura 2-loaded PC12 cells [2]: significant increases in [Ca^2+]i

O=c1c2ccccc2[nH]c(=S)n1CCN1CCC(=C(c2ccc(F)cc2)c2ccc(F)cc2)CC1 [R59949]
effect of preincubation on responses to artemisinin (1–200 µM) (TRPC3): did not increase the responses

O=C(NCCCCCCNC(=O)ON=C1CCCCC1)ON=C1CCCCC1 [RHC 80267]
effect of preincubation on responses to artemisinin (1–200 µM) (TRPC3): did not increase the responses

N#Cc1ccc(O[C@@H]2c3ccccc3C[C@H]2N2CCC[C@@H](N)C2)c(Cl)c1 [SAR7334]
IC50 (TRPC3): 1.4 µM
effect on ionic currents stimulated by 50 µM artemisinin in PC12 cells [1]: rapidly reversed

CCO[C@H]1O[C@@H]2O[C@@]3(C)CC[C@H]4[C@H](C)CC[C@@H]([C@H]1C)[C@@]24OO3 [arteether]
TRPC3 activation in concentration response analysis (TRPC3): did not exert signals that were significantly stronger than responses to the solvent
effect on TRPC7 (hTRPC7-YFP): inhibited

CO[C@H]1O[C@@H]2O[C@@]3(C)CC[C@H]4[C@H](C)CC[C@@H]([C@H]1C)[C@@]24OO3 [artemether]
EC50 (TRPC3; fluo-4, HEK TRPC3-YFP cell suspensions, read-out: potency to activate Ca2+ entry through TRPC3): 14.8 µM
effect on TRPC7 (hTRPC7-YFP): inhibited
response of cells stably transfected with both TRPC3 and TRPC6 [3]: in a very similar fashion as HEKTRPC3-YFP cells

C[C@H]1[C@H](OC(=O)CCC(=O)O)O[C@@H]2O[C@@]3(C)CC[C@H]4[C@H](C)CC[C@@H]1[C@@]24OO3 [artesunate]
TRPC3 activation in concentration response analysis (TRPC3): did not exert signals that were significantly stronger than responses to the solvent
